In PMC10448176, “Arsenite oxidase in complex with antimonite and arsenite oxyanions: Insights into the catalytic mechanism” (The Journal of Biological Chemistry, 2023):
Read-outs that look alike come from different tables or passages of the source.

Biological target: Af Aio (arsenite oxidase, AioA/AioB) (Alcaligenes faecalis, UniProt Q7SIF4)
Conditions: Mo active site of AioA, covalent

SMILES | X-ray crystallography, crystal soak (10 mM sodium arsenite soak of ferricyanide-oxidized crystals, mu-oxo bridged to Mo, two structures: As_d (8CH9, two oxo bridges) and As_c (8CFF, one bridge, possible)) | X-ray crystallography, crystal soak (10 mM potassium antimonyl tartrate soak of ferricyanide-oxidized crystals, one oxo bridge to Mo, Sb with four further oxo/hydroxo groups, turnover intermediate)
O[As](O)O [As, arsenite] | the As ion is bound to Mo via one μ-oxo bridge (Mo-Ox-As) | –
[OH][Sb]([OH])[OH] [Sb, antimonite] | – | the Sb atom is sitting vertically to Mo and coordinated to the oxo ligand
